{"source": "paper PMC10920834", "about": "“Synthesis, anticancer activity, and molecular docking of half-sandwich iron(II) cyclopentadienyl complexes with maleimide and phosphine or phosphite ligands” (Scientific Reports, 2024)", "format_in_all_cases": "cell-based, human", "key": {"[1]": {"system": "PBM cells", "experiment": "Cell viability resazurin assay, PBM cells", "settings": "for viability of PBM cells relative to control: ± SD", "from_the_text": "Peripheral blood mononuclear (PBM) cells were isolated from a leukocyte-buffy coat collected from the blood of healthy, non-smoking donors at the Blood Bank in Lodz, Poland. The study protocol received approval from the Committee for Research on Human Subjects of the University of Lodz (17/KBBN-UŁ/III/2019). The initial step of isolation process involved mixing buffy coats with PBS in a 1:1 ratio. Subsequently, the mixture was centrifuged using a density gradient of Lymphosep (Cytogen, Zgierz, Poland) at 2200 RPM for 20 min, employing the lowest values for acceleration and deceleration. PBM cells were collected and washed three times by centrifugation with 1 × PBS. Following isolation, the cells were suspended in RPMI 1640 medium.\n(§1) Firstly, resazurin salt powder was dissolved in sterile 1 × PBS. Cells were then seeded on the 96-well plates in the count of 1 × 10^4 in the case of HL-60 cells and of 5 × 10^4 for PBM cells and of 5 × 10^3 for A549 cells per well. A549 cells were seeded 24 h prior to treatment with the complexes to allow cell adherence to 96-well plate. Iron(II) complexes were added to wells to obtain final concentrations of 0.5, 1, 2.5, 5, 10, 25, 50, 100 and 250 μM. Subsequently, plates were incubated at 37 °C in 5% CO2 for 2 h and 24 h. After that 10 μl of resazurin salt was added to each well and plates again were incubated in 37 °C in 5% CO2 for 2 h. Finally, fluorescence was measured with microplate reader Synergy HT (Bio-Tek Instruments, USA) using an excitation wavelength of 530/25 and an emission wavelength of 590/35 nm. The effects of iron(II) complexes were calculated as the percentage of control fluorescence. IC50 (half maximal inhibitory concentration) values were calculated using a website algorithm (https://www.aatbio.com/tools/ic50-calculator). All assays were performed in octuplicate."}, "[2]": {"system": "HL-60 cells", "experiment": "Cell viability resazurin assay, HL-60 cells", "settings": "for viability of HL-60 cells relative to control: ± SD", "protocol": "(§2) The A549 (human non-small cell lung cancer) cell line was obtained from the American Type Culture Collection (ATCC) and cultured in Dulbecco's Modified Eagle Medium (DMEM) with 10% fetal bovine serum (FBS), 2 mM L-Glutamine, 25 mM HEPES and penicillin/streptomycin solution (100 U/ml and 100 µg/ml, respectively). The HL-60 (human promyelocytic leukemia) cell line was also obtained from the American Type Culture Collection (ATCC) and cultured in Iscove’s Modified Dulbecco's Medium (IMDM) with 15% fetal bovine serum (FBS), 2 mM L-Glutamine, 25 mM HEPES and penicillin/streptomycin solution (100 U/ml and 100 µg/ml, respectively). Both cell lines were cultured in flasks at 37 °C in 5% CO2 and sub-cultured every 2–3 days to maintain exponential growth.\nas §1"}, "[3]": {"system": "A549 cells", "experiment": "Cell viability resazurin assay, A549 cells", "settings": "for viability of A549 cells relative to control: ± SD", "protocol": "as §2, §1"}}, "data": [{"smiles": "O=C1C=CC(=O)[N-]1.[C-]#[O+].[Fe+2].c1cc[cH-]c1.c1ccc(OP(Oc2ccccc2)Oc2ccccc2)cc1", "note": "[3b, CpFe(CO)(P(OPh)3)(η^1-N-maleimidato)]", "values": [{"measurement": "viability of PBM cells relative to control", "setting": "[1]; 2 h incubation, 0.5 µM", "result": "98.5 ± 2.18", "unit": "%"}, {"measurement": "viability of PBM cells relative to control", "setting": "[1]; 2 h incubation, 1 µM", "result": "99.88 ± 2.57", "unit": "%"}, {"measurement": "viability of PBM cells relative to control", "setting": "[1]; 2 h incubation, 2.5 µM", "result": "97.35 ± 5.51", "unit": "%"}, {"measurement": "viability of PBM cells relative to control", "setting": "[1]; 2 h incubation, 5 µM", "result": "100.32 ± 3.02", "unit": "%"}, {"measurement": "viability of PBM cells relative to control", "setting": "[1]; 2 h incubation, 10 µM", "result": "99.06 ± 3.6", "unit": "%"}, {"measurement": "viability of PBM cells relative to control", "setting": "[1]; 2 h incubation, 25 µM", "result": "98.42 ± 1.87", "unit": "%"}, {"measurement": "viability of PBM cells relative to control", "setting": "[1]; 2 h incubation, 50 µM", "result": "100.03 ± 0.88", "unit": "%"}, {"measurement": "viability of PBM cells relative to control", "setting": "[1]; 2 h incubation, 100 µM", "result": "98.48 ± 0.54", "unit": "%"}, {"measurement": "viability of PBM cells relative to control", "setting": "[1]; 2 h incubation, 250 µM", "result": "99.51 ± 1.24", "unit": "%"}, {"measurement": "IC50", "setting": "[1]; 24 h incubation", "result": 5.8, "unit": "µM"}, {"measurement": "viability of PBM cells relative to control", "setting": "[1]; 24 h incubation, 0.5 µM", "result": "97.8 ± 2.01", "unit": "%"}, {"measurement": "viability of PBM cells relative to control", "setting": "[1]; 24 h incubation, 1 µM", "result": "98.46 ± 7.18", "unit": "%"}, {"measurement": "viability of PBM cells relative to control", "setting": "[1]; 24 h incubation, 2.5 µM", "result": "94.41 ± 2.27", "unit": "%"}, {"measurement": "viability of PBM cells relative to control", "setting": "[1]; 24 h incubation, 5 µM", "result": "52.91 ± 0.63", "unit": "%"}, {"measurement": "viability of PBM cells relative to control", "setting": "[1]; 24 h incubation, 10 µM", "result": "49.35 ± 1.94", "unit": "%"}, {"measurement": "viability of PBM cells relative to control", "setting": "[1]; 24 h incubation, 25 µM", "result": "31 ± 1.1", "unit": "%"}, {"measurement": "viability of PBM cells relative to control", "setting": "[1]; 24 h incubation, 50 µM", "result": "28.33 ± 2.17", "unit": "%"}, {"measurement": "viability of PBM cells relative to control", "setting": "[1]; 24 h incubation, 100 µM", "result": "16.65 ± 0.55", "unit": "%"}, {"measurement": "viability of PBM cells relative to control", "setting": "[1]; 24 h incubation, 250 µM", "result": "13.82 ± 0.52", "unit": "%"}, {"measurement": "viability of HL-60 cells relative to control", "setting": "[2]; 2 h incubation, 0.5 µM", "result": "108.58 ± 5.93", "unit": "%"}, {"measurement": "viability of HL-60 cells relative to control", "setting": "[2]; 2 h incubation, 1 µM", "result": "105.27 ± 5.97", "unit": "%"}, {"measurement": "viability of HL-60 cells relative to control", "setting": "[2]; 2 h incubation, 2.5 µM", "result": "111.13 ± 4.29", "unit": "%"}, {"measurement": "viability of HL-60 cells relative to control", "setting": "[2]; 2 h incubation, 5 µM", "result": "116.45 ± 4.31", "unit": "%"}, {"measurement": "viability of HL-60 cells relative to control", "setting": "[2]; 2 h incubation, 10 µM", "result": "125.67 ± 4.5", "unit": "%"}, {"measurement": "viability of HL-60 cells relative to control", "setting": "[2]; 2 h incubation, 25 µM", "result": "140.68 ± 7.01", "unit": "%"}, {"measurement": "viability of HL-60 cells relative to control", "setting": "[2]; 2 h incubation, 50 µM", "result": "116.21 ± 2.09", "unit": "%"}, {"measurement": "viability of HL-60 cells relative to control", "setting": "[2]; 2 h incubation, 100 µM", "result": "70.87 ± 2.53", "unit": "%"}, {"measurement": "viability of HL-60 cells relative to control", "setting": "[2]; 2 h incubation, 250 µM", "result": "23.24 ± 0.25", "unit": "%"}, {"measurement": "HL-60 cell viability, sharp increase up to", "setting": "[2]; 2 h incubation, concentration not given", "result": "approximately 140%"}, {"measurement": "IC50", "setting": "[2]; 24 h incubation", "result": 9.09, "unit": "µM"}, {"measurement": "viability of HL-60 cells relative to control", "setting": "[2]; 24 h incubation, 0.5 µM", "result": "101.68 ± 1.04", "unit": "%"}, {"measurement": "viability of HL-60 cells relative to control", "setting": "[2]; 24 h incubation, 1 µM", "result": "98.91 ± 4.85", "unit": "%"}, {"measurement": "viability of HL-60 cells relative to control", "setting": "[2]; 24 h incubation, 2.5 µM", "result": "91.42 ± 3.16", "unit": "%"}, {"measurement": "viability of HL-60 cells relative to control", "setting": "[2]; 24 h incubation, 5 µM", "result": "72.37 ± 3.19", "unit": "%"}, {"measurement": "viability of HL-60 cells relative to control", "setting": "[2]; 24 h incubation, 10 µM", "result": "49.27 ± 1.71", "unit": "%"}, {"measurement": "viability of HL-60 cells relative to control", "setting": "[2]; 24 h incubation, 25 µM", "result": "3.18 ± 0.36", "unit": "%"}, {"measurement": "viability of HL-60 cells relative to control", "setting": "[2]; 24 h incubation, 50 µM", "result": "0.99 ± 0.02", "unit": "%"}, {"measurement": "viability of HL-60 cells relative to control", "setting": "[2]; 24 h incubation, 100 µM", "result": "0.96 ± 0.1", "unit": "%"}, {"measurement": "viability of HL-60 cells relative to control", "setting": "[2]; 24 h incubation, 250 µM", "result": "0.94 ± 0.06", "unit": "%"}, {"measurement": "viability of A549 cells relative to control", "setting": "[3]; 2 h incubation, 0.5 µM", "result": "94.42 ± 12.46", "unit": "%"}, {"measurement": "viability of A549 cells relative to control", "setting": "[3]; 2 h incubation, 1 µM", "result": "97.15 ± 8.30", "unit": "%"}, {"measurement": "viability of A549 cells relative to control", "setting": "[3]; 2 h incubation, 2.5 µM", "result": "96.59 ± 9.16", "unit": "%"}, {"measurement": "viability of A549 cells relative to control", "setting": "[3]; 2 h incubation, 5 µM", "result": "90.46 ± 7.14", "unit": "%"}, {"measurement": "viability of A549 cells relative to control", "setting": "[3]; 2 h incubation, 10 µM", "result": "93.75 ± 11.55", "unit": "%"}, {"measurement": "viability of A549 cells relative to control", "setting": "[3]; 2 h incubation, 25 µM", "result": "97.77 ± 7.39", "unit": "%"}, {"measurement": "viability of A549 cells relative to control", "setting": "[3]; 2 h incubation, 50 µM", "result": "104.82 ± 7.84", "unit": "%"}, {"measurement": "viability of A549 cells relative to control", "setting": "[3]; 2 h incubation, 100 µM", "result": "97.69 ± 11.65", "unit": "%"}, {"measurement": "viability of A549 cells relative to control", "setting": "[3]; 2 h incubation, 250 µM", "result": "97.95 ± 13.58", "unit": "%"}, {"measurement": "IC50", "setting": "[3]; 24 h incubation", "result": 19.2, "unit": "µM"}, {"measurement": "viability of A549 cells relative to control", "setting": "[3]; 24 h incubation, 0.5 µM", "result": "91.38 ± 8.55", "unit": "%"}, {"measurement": "viability of A549 cells relative to control", "setting": "[3]; 24 h incubation, 1 µM", "result": "92.49 ± 11.20", "unit": "%"}, {"measurement": "viability of A549 cells relative to control", "setting": "[3]; 24 h incubation, 2.5 µM", "result": "78.64 ± 6.01", "unit": "%"}, {"measurement": "viability of A549 cells relative to control", "setting": "[3]; 24 h incubation, 5 µM", "result": "80.46 ± 7.49", "unit": "%"}, {"measurement": "viability of A549 cells relative to control", "setting": "[3]; 24 h incubation, 10 µM", "result": "80.04 ± 11.40", "unit": "%"}, {"measurement": "viability of A549 cells relative to control", "setting": "[3]; 24 h incubation, 25 µM", "result": "25.66 ± 3.11", "unit": "%"}, {"measurement": "viability of A549 cells relative to control", "setting": "[3]; 24 h incubation, 50 µM", "result": "22.34 ± 2.60", "unit": "%"}, {"measurement": "viability of A549 cells relative to control", "setting": "[3]; 24 h incubation, 100 µM", "result": "42.71 ± 5.87", "unit": "%"}, {"measurement": "viability of A549 cells relative to control", "setting": "[3]; 24 h incubation, 250 µM", "result": "28.61 ± 5.09", "unit": "%"}]}]}
